Molecules are shown by their SMILES.

A short description of data set [1]: Solubility in cosmetic solvents (CÉTIOL LC, CRODAMOL DA). To be noted: for Solubility in CRODAMOL DA: solvent CRODAMOL DA (Diisopropyl adipate); for Solubility in CÉTIOL LC: solvent CÉTIOL LC (Coco-caprylate/caprate); for solubility in cosmetic solvents (in words): cosmetic solvents such as CÉTIOL LC and CRODAMOL DA.
Data set [2] in a line: Photostability at high dilution in ethanol solution under Hg lamp with Pyrex filter. It is filed as physicochemical. How it is done:
A 25 ml reaction flask equipped with a distillation bridge and connected to vacuum was charged with 2 g (6.3 mmol) of cyano-(2,3-dihydro-5,6-dimethoxy-3,3-dimethyl-1H-inden-1-ylidene) acetic acid ethyl ester (see Example 1), 1.37 g (6.6 mmol) of 3-(1,1,3,3,3-pentamethy-disiloxanyl)-propanol (see above) and 3 mg of tetraisopropyl ortho titanate. The mixture was heated to 115° C. to 120° C. at a vacuum of 360 mbar with stirring for 11 hours.

On to `CCOC(=O)/C(C#N)=C1\CC(C)(C)c2cc(OC)c(OC)cc21` [Example 1, Cyano-(2,3-dihydro-5,6-dimethoxy-3,3-dimethyl-1H-inden-1-ylidene)acetic Acid Ethyl Ester, reference compound], for which, in data set [1], the “Solubility in CRODAMOL DA” value was 1.71% and the “Solubility in CÉTIOL LC” value was determined as 0.35%. Besides, in data set [1] (listed as drawing 30), the “Solubility in CÉTIOL LC” value is 0.35%.
In the case of `COc1cc2c(cc1OC)C(C)(C)C/C2=C(/C#N)C(=O)OCCC[Si](C)(C)O[Si](C)(C)C` [Example 2, Cyano-(2,3-dihydro-5,6-dimethoxy-3,3-dimethyl-1H-inden-1-ylidene) acetic Acid-3-(1,1,3,3,3-pentamethy-disiloxanyl)-propyl Ester], in data set [1], the “solubility in cosmetic solvents (in words)” value (from here on “solubility … (in words)”) was “excellent solubility” and the “Solubility in CRODAMOL DA” value is given as “miscible”. In addition, the photostability entry in data set [2] was “excellent photostability”.
Regarding `COc1cc2c(cc1OC)C(C)(C)C/C2=C(/C#N)C(=O)OCC(C)C[Si](C)(C)O[Si](C)(C)C` (centres unmarked) [Example 3, Cyano-(2,3-dihydro-5,6-dimethoxy-3,3-dimethyl-1H-inden-1-ylidene) acetic Acid-3-(1,1,3,3,3-pentamethy-disiloxanyl)-2-methyl-propyl Ester], in data set [1], the “solubility … (in words)” value was “same solubility and photostability qualities as described in Example 2b”; the “Solubility in CRODAMOL DA” value is listed as “miscible”. In addition, the photostability result in data set [2] was “same solubility and photostability qualities as described in Example 2b”.
In the case of `COc1cc2c(cc1OC)C(C)(C)C/C2=C(/C#N)C(=O)OCCCC[Si](C)(O[Si](C)(C)C)O[Si](C)(C)C` [Example 4, Cyano-(2,3-dihydro-5,6-dimethoxy-3,3-dimethyl-1H-inden-1-ylidene) acetic Acid-4-(1,3,3,3-tetramethyl-1-[(trimethylsilyl)-oxy]-disiloxanyl)-butyl Ester], in data set [1], the “Solubility in CRODAMOL DA” value is recorded as “miscible”. For the same compound, the photostability result in data set [2] is listed as “excellent photostability”.
Consider `CC[Si](CC)(CC)CCOCCCCOC(=O)/C(C#N)=C1\CC(C)(C)c2cc(OC)c(OC)cc21` [Example 5, Cyano-(2,3-dihydro-5,6-dimethoxy-3,3-dimethyl-1H-inden-1-ylidene) acetic Acid-4-(2-triethylsilanyl-ethoxy)-butyl Ester], for which, in data set [1], the “solubility … (in words)” value was “same solubility and photostability qualities as described in Example 2b”; the “Solubility in CRODAMOL DA” value is recorded as “miscible”. In addition, the photostability result in data set [2] is “same solubility and photostability qualities as described in Example 2b”.
In the case of `CC[Si](/C=C/CCOC(=O)/C(C#N)=C1\CC(C)(C)c2cc(OC)c(OC)cc21)(CC)CC` [Example 6, Cyano-(2,3-dihydro-5,6-dimethoxy-3,3-dimethyl-1H-inden-1-ylidene) acetic Acid-4-triethylsilanyl-but-3-enyl Ester], in data set [1], the “solubility … (in words)” value is “same solubility and photostability qualities as described in Example 2b”; the “Solubility in CRODAMOL DA” value is listed as “miscible”. In addition, in data set [2], the photostability result was “same solubility and photostability qualities as described in Example 2b”.
With `COc1ccc2c(c1)CC(C)/C2=C(/C#N)C(=O)OCCCC[Si](C)(C)O[Si](C)(C)C` (centres unmarked) [Example 7, Cyano-(2,3-dihydro-5-methoxy-2-methyl-1H-inden-1-ylidene)acetic Acid-4-(1,1,3,3,3-pentamethy-disiloxanyl)-butyl Ester], in data set [1], the “solubility … (in words)” value was “same solubility and photostability qualities as described in Example 2b”; the “Solubility in CRODAMOL DA” value is on record as “miscible”. The photostability result in data set [2] was “same solubility and photostability qualities as described in Example 2b”.
For the compound `C=C(CNC(=O)/C(C#N)=C1\CC(C)(C)c2cc(OC)c(OC)cc21)[Si](C)(O[Si](C)(C)C)O[Si](C)(C)C` [Example 8, Cyano-(2,3-dihydro-5,6-dimethoxy-3,3-dimethyl-1H-inden-1-ylidene)acetic Acid-2-(1,3,3,3-tetramethyl-1-[(trimethylsilyl)-oxy]-disiloxanyl)-prop-2-enyl Amide], in data set [1], the “Solubility in CRODAMOL DA” value is on record as “miscible”. In addition, in data set [2], the photostability result is “same photostability qualities as described in Example 2b”.
As for `C#CCNC(=O)/C(C#N)=C1\CC(C)(C)c2cc(OC)c(OC)cc21` [Example 8b, 2-Cyano-2-(5,6-dimethoxy-3,3-dimethyl-indan-1-ylidene)-N-prop-2-ynyl-acetamide, reference compound], the “Solubility in CÉTIOL LC” value in data set [1] and in data set [1] (listed as drawing 33) was 0.04% each time.
As to `C=C(COc1cc2c(cc1OC)/C(=C(\C#N)C(=O)OCC)CC2(C)C)[Si](C)(O[Si](C)(C)C)O[Si](C)(C)C` [Example 11], in data set [1], the “Solubility in CRODAMOL DA” value is “miscible”. The photostability result in data set [2] is “same photostability qualities as described in Example 2b”.
For `CCOC(=O)/C(C#N)=C1\CC(C)(C)c2cc(OC)ccc21` [drawing 31, reference compound], in data set [1], the “Solubility in CRODAMOL DA” value is reported as 0.60% and the “Solubility in CÉTIOL LC” value is recorded as 0.10%.
For `CCOC(=O)/C(C#N)=C1\CC(C)(C)c2cc(OC)ccc21` [drawing 32, reference compound], the “Solubility in CÉTIOL LC” value in data set [1] amounted to 0.09%.

These data come from patent US6416746B1, “Indanylidene compounds” (Roche Vitamins Inc., priority 1998, dated 2002).
